Activity calls are given as the source filed them. The rule behind the calls is not given here.
Columns and labels:
CHO [1] = assay: Cytotoxicity against CHO pgsA745 mutant cells upto 100 nM after 4 days by Cell-Titer assay; assay type: cell-based, Cricetulus griseus; settings: chinese hamster, 96 h
CHO [2] = assay: Cytotoxicity against CHO cells upto 100 nM after 4 days by Cell-Titer assay; assay type: cell-based, Cricetulus griseus; settings: chinese hamster, 96 h
CHO [3] = assay: Inhibition of arg9 binding to CHO cells after 1 hr by flow cytometry; assay type: cell-based
[4] = molecular target: Fibroblast growth factor 2 (Homo sapiens, UniProt P09038); assay: Binding affinity to biotinylated FGF2 in CHO cells by flow cytometry; assay type: cell-based
CHO [5] = assay: Inhibition of arg9 binding to CHO pgsA745 mutant cells after 1 hr by flow cytometry; assay type: cell-based

Fibroblast growth factor 2, sequence (P09038 143-288 limits assumed): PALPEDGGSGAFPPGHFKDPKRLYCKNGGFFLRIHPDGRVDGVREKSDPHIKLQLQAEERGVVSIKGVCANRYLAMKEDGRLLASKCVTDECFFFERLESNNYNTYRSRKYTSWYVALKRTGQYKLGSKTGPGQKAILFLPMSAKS

SMILES	Activity (CHO [1])	Activity (CHO [2])	Activity (CHO [3])	IC50 [4] [µM]	Activity (CHO [5])
N=C(N)NC[C@@H]1O[C@H](O[C@H]2[C@@H](O)[C@H](O[C@@H]3[C@@H](O)[C@H](NC(=N)N)C[C@H](NC(=N)N)[C@H]3O[C@H]3O[C@H](CNC(=N)N)[C@@H](O)[C@H](O)[C@H]3NC(=N)N)O[C@@H]2CSCCNC(=O)CCCCCNC(=O)CCCC[C@@H]2SCC3NC(=O)NC32)[C@H](NC(=N)N)[C@@H](O)[C@@H]1O (stereo not given in full)	Non-toxic	Non-toxic	–	–	–
N=C(N)NC[C@@H]1O[C@H](O[C@H]2[C@@H](O)[C@H](O[C@@H]3[C@@H](O)[C@H](NC(=N)N)C[C@H](NC(=N)N)[C@H]3O[C@H]3O[C@H](CNC(=N)N)[C@@H](O)[C@H](O)[C@H]3NC(=N)N)O[C@@H]2CO)[C@H](NC(=N)N)[C@@H](O)[C@@H]1O [GUANIDINONEOMYCIN]	–	–	Active	20	inactive
